{"source": "patent US6750256B1", "about": "“Use of aromatic aldehydes as insecticides” (Proguard, Inc., priority 1994, dated 2004)", "key": {"human subjects [1]": {"system": "human subjects", "settings": "12% in petrolatum; 48 hour closed-patch test on human subjects; cited from earlier work"}, "[2]": {"settings": "cited from earlier work"}, "[3]": {"system": "thrips insects (Frankliniella occidentalis)", "assay": "Residual activity on treated filter paper against thrips", "type": "in vivo", "settings": "rehydrated 24 and 72 hours after spraying, thrips exposed one hour", "description": "In the first experiment, two ml of two concentrations of CNMA (0.3 and 1%) were sprayed on filter paper (Whatman). As a negative control, two ml of water was also sprayed on filter paper. Twenty-four hours later, two ml of water were sprayed on treatment and control filter paper, which were then dried for 30 min. Approximately 30 thrips insects (Frankliniella occidentalis) were introduced onto the treated filter papers and the number of F. occidentalis were observed after one hour. Mean mortality was calculated for each treatment. After 72 hours, the treated filter papers were flipped over and only the negative control filter paper and the filter paper treated with 1% CNMA were sprayed with 2 ml of water and allowed to dry for 30 minutes. Approximately 30 thrips were introduced onto the two treated filter papers and after one hour the number of dead F. occidentalis were observed and the mean mortality calculated for each treatment. A similar assay was conducted using AHCNMA. Mean mortality was higher for rehydrated filter papers compared to non-rehydrated filter papers over time."}, "human subjects [4]": {"system": "human subjects", "settings": "20% in diethylphthalate; 100 human subjects; cited from earlier work"}, "rats": {"system": "rats", "settings": "cited from earlier work"}, "[5]": {"system": "cat flea (Ctenocepalides felis)", "assay": "Cat flea contact treatment on sprayed carpet plugs", "type": "in vivo", "settings": "72 hours", "description": "The treatment of cat flea (Ctenocepalides felis) with various formulations containing alpha hexyl cinnamaldehyde is tested as follows. In a double blind experiment, variable concentrations of the formulae were tested for activity against cat flea (Ctenocepalides felis). The initial experiments tested alpha hexyl cinnamaldehyde at concentrations of 5%, 10% and 20% in 6% Tween 80. As controls, a formula blank containing 6% Tween 80 and negative control with no formulae were tested. Fleas were put in direct contact with the formulae and mortality was assessed both visually and by probing at 72 hours after contact.\nApproximately […] of each formula concentration was sprayed on 0.279 square meter carpet section (DuPont) at 20 PSI. After allowing to air dry (20 minutes), four plugs each 14 cm in diameter were cut from each treated carpet section. One plug was used for each replicate for four total replications. For each treatment and replicate, 25 fleas were introduced on each plug. Plugs were then rolled and put in an escape proof, ventilated 2 liter container. After 72 hours mortality was assessed."}, "[6]": {"settings": "at 25° C.; cited from earlier work"}, "[7]": {"system": "two-spotted spider mite, Tetranychus urticae", "assay": "Spider mite treated petri dish contact bioassay", "type": "in vivo", "settings": "positive control, 10 ppm; 24 hours contact", "description": "Activity of cinnamic aldehyde and/or coniferyl aldehyde against two-spotted spider mite, Tetranychus urticae is determined as follows. In a double blind experiment, intersurfaces of petri dishes (60 mm diameter) were treated with 100 μl of a test formulation and allowed to air dry and used within the hour. Twenty adult spider mites were put in each dish and the percent of mortality of the spider mites after 24 hours in contact with the treated dishes Was determined."}, "[8]": {"system": "Adult human lice (Pediculus humanus)", "type": "in vivo", "settings": "2% in water, lice submerged 1, 4 or 10 minutes", "description": "Adult human lice (Pediculus humanus) were treated with α-butyl cinnamic aldehyde to determine its pediculicidal activity. […] For each of four replicates, 25 mixed sex lice were placed in a 9 dram plastic vial and covered with a screened plunger to keep the lice from floating to the surface. The vial containing the lice was dipped into a 100 ml beaker containing 2% α-butyl cinnamic aldehyde, which was dissolved in water or distilled water as a negative control. Lice were submerged in the 2% α-butyl cinnamic aldehyde for 1, 4 or 10 minutes. After this time, the test container was removed from the treatment, submerged in a 1000 mL beaker containing distilled water (32° C.) from a wash bottle. Subsequently, lice were allowed to recover in an incubator maintained at 31.7° C. in 60% RH (relative humidity) for 1 hour. Following the recovery period, lice were examined for their ability to move toward heat. For this observation, the lice were placed on a patch which was placed on a second patch that was on top of a slide warmer maintained at 37° C. Lice not dead or morbid (unable to move towards heat 1 hour after treatment; sickly, but not necessarily dying; may recover by 24 hours), will move to the lower patch. Lice again were examined for their ability to move towards 24 hours later. […]"}}}
{"smiles": "CCCCCCC(C=O)=Cc1ccccc1", "note": "[HCA, 2-(phenylmethylene) octanal]", "values": [{"measurement": "irritation", "setting": "human subjects [1]", "result": "no irritation"}, {"measurement": "dermal LD50", "setting": "[2]", "result": "greater than 3 g/kg"}, {"measurement": "residual activity in words", "setting": "[3]", "result": "residual activity"}, {"measurement": "reactions in repeated insult patch test", "setting": "human subjects [4]", "result": "no positive reactions"}, {"measurement": "oral LD50", "setting": "rats", "result": 3.1, "unit": "g/kg"}, {"measurement": "Percent Mortality", "setting": "[5]; 5% wt/vol in 6% Tween 80", "result": 84, "unit": "%"}, {"measurement": "Percent Mortality", "setting": "[5]; 10% wt/vol in 6% Tween 80", "result": 92, "unit": "%"}, {"measurement": "Percent Mortality", "setting": "[5]; 20% wt/vol in 6% Tween 80", "result": 86, "unit": "%"}, {"measurement": "flea mortality", "setting": "[5]; all treatments (5%, 10% and 20% in 6% Tween 80)", "result": "greater than 80%"}, {"measurement": "vapor pressure", "setting": "[6]", "result": "70×10^−5 mm Hg"}]}
{"smiles": "CCN(CC)c1cccc(C)c1", "note": "[N,N-diethyl-m-toluamine, reference compound]", "values": [{"measurement": "vapor pressure", "setting": "[6]", "result": "167×10^−5 mm Hg"}]}
{"smiles": "CNC(=O)Oc1cccc2ccccc12", "note": "[Sevin, reference compound]", "values": [{"measurement": "Percent Mortality (24 hours)", "setting": "[7]", "result": 100, "unit": "%"}]}
{"smiles": "CCCCC(C=O)=Cc1ccccc1", "note": "[α-butyl cinnamic aldehyde]", "values": [{"measurement": "mortality", "setting": "[8]; at 24 hours", "result": 98.6, "unit": "%"}, {"measurement": "knockdown", "setting": "[8]; at the 1 hour time point", "result": 100, "unit": "%"}]}
